According to US9682941B2, “Substituted biphenyl analogues as dual inhibitors of aromatase and sulfatase” (ESTRYX PHARMA LIMITED, priority 2013, dated 2017):

Key:
CYP1A2 = target: T1, CYP1A2 (Homo sapiens, UniProt P05177); experiment: Cytochrome P450 inhibition, human recombinant CYP1A2; format: in vitro ADME; conditions: recombinant human CYP, 15 minutes, 37° C.
T1 sequence (P05177 1-516): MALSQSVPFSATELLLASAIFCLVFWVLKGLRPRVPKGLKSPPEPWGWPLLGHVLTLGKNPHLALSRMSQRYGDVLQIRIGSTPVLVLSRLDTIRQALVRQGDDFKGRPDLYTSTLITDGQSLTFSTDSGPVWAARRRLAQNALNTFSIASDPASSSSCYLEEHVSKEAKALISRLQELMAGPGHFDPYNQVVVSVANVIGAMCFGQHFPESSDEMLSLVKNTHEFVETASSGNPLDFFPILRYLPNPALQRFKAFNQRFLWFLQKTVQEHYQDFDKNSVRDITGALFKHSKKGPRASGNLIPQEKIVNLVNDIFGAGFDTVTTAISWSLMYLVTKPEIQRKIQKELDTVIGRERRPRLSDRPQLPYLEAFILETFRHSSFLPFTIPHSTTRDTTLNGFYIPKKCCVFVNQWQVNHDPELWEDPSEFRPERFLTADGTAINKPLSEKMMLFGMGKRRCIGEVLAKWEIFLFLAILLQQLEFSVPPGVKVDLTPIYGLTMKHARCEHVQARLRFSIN
Experimental: (§1) Inhibitory activity of the compounds towards CYP1A2, 2C9, 2C19, 2D6, and 3A4 was evaluated using human recombinant CYPs. Test compounds and reference inhibitors were initially prepared from their stock solutions in a mixture solvent of DMSO/ACN (10/90) at a concentration of 200-fold of the final. A 3-fold serial dilution (1/3, 1/9, 1/27 etc.) was made in the DMSO/ACN mixture solvent to generate 7 consecutive concentrations. The serially diluted solutions of test compounds and reference inhibitors (positive controls) were further diluted directly in recombinant human CYP enzymes in assay buffer (0.1 M potassium phosphate buffer, pH7.4) to reach the concentration of 2-fold of the final (2×). Aliquots of 30 μL of 2× compound/enzyme solutions were loaded to a 96-well assay plates and preincubated at 37° C. for 10 minutes. An aliquot of 15 μL of prewarmed 4× substrate solutions made in the assay buffer was added into each of the wells containing the 2× compound/enzyme mixtures. Finally, the reaction was initiated by adding an aliquot of 15 μL of 4×NADPH made in the assay buffer and the assay plates were further incubated at 37° C. for a time period designated for each isoform (5 minutes for 3A4, 20 minutes for 2C9, 10 minutes for 2D6 and 2C19, and 15 minutes for 1A2). The reactions were stopped by adding 120 μL ACN containing the stable isotopes of the metabolites for corresponding CYP isoforms, followed by vortexing for 5 minutes and centrifugation at 4000 rpm for 15 minutes. The resulting supernatants were transferred into new 96-well plates for LC-MS/MS analysis. Experiments are performed in duplicate. The inhibitory concentration of 50% of the enzymatic activity is calculated.

CYP2C9 = CYP2C9 (Homo sapiens, UniProt P11712); experiment: Cytochrome P450 inhibition, human recombinant CYP2C9; format: in vitro ADME; conditions: recombinant human CYP, 20 minutes, 37° C.
Experimental: as §1

CYP2C19 = CYP2C19 (Homo sapiens, UniProt P33261); experiment: Cytochrome P450 inhibition, human recombinant CYP2C19; format: in vitro ADME; conditions: recombinant human CYP, 10 minutes, 37° C.
Experimental: as §1

steroid sulfatase = target: T2, steroid sulfatase (Homo sapiens, UniProt P08842); experiment: Steroid sulfatase (STS) inhibition assay in JEG-3 cells ([6,7-3H] estrone sulfate); format: cell-based; conditions: 1 hour at 37° C., duplicate
T2 construct: JEG-3 which constitutively expresses high amount of aromatase and steroid sulfatase; endogenous in cells; host or cells: JEG-3
T2 sequence (P08842 22-583): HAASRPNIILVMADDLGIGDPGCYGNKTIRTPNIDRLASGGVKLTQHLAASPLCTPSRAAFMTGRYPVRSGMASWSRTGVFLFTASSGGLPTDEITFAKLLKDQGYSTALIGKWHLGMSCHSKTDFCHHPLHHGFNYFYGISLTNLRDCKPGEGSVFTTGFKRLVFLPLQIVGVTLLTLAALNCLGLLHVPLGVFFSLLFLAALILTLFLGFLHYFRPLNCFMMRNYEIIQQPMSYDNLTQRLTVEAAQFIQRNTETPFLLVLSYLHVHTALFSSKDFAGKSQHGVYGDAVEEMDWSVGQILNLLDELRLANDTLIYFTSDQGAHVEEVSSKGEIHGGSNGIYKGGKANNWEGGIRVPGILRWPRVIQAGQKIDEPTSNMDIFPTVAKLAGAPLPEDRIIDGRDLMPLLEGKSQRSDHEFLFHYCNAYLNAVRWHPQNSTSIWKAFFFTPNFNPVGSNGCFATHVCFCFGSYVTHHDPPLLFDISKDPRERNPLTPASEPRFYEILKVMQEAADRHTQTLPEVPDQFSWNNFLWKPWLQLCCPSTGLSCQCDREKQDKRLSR
Experimental: (§2) Aromatase and steroid sulfatase enzymes inhibitions were evaluated in the human chorionic carcinoma cell line JEG-3 which constitutively expresses high amount of aromatase and steroid sulfatase.
For STS assay, JEG-3 cells were seeded into 24-well culture plates at 150,000 cells/ml/well and maintained in MEM containing supplements overnight. When reaching 80% confluent, the cells were washed once with serum-free MEM, loaded with 1 ml of substrate mix containing [6,7-3H] Estrone sulfate (E1S, 0.6 μCi/ml) and [4-14C] Estrone (E1, 4 nCi/ml) in the presence of compounds in a concentration series, and incubated for 1 hour at 37° C. The product [3H]E1 was separated from E1S by toluene partition using [4-14C]E1 to monitor extraction procedural losses, and the toluene fraction radioactivity was measured by a MicroBeta scintillation counter.
(§3) Experiments are performed in duplicate. The inhibitory concentration of 50% of the enzymatic activity is calculated.

aromatase = target: T3, aromatase (Homo sapiens, UniProt P11511); experiment: Aromatase inhibition assay in JEG-3 cells ([1β-3H] androstenedione, tritiated water release); format: cell-based; conditions: 1.25 hour incubation, duplicate
T3 construct: JEG-3 which constitutively expresses high amount of aromatase and steroid sulfatase; endogenous in cells; host or cells: JEG-3
T3 sequence (P11511 1-503): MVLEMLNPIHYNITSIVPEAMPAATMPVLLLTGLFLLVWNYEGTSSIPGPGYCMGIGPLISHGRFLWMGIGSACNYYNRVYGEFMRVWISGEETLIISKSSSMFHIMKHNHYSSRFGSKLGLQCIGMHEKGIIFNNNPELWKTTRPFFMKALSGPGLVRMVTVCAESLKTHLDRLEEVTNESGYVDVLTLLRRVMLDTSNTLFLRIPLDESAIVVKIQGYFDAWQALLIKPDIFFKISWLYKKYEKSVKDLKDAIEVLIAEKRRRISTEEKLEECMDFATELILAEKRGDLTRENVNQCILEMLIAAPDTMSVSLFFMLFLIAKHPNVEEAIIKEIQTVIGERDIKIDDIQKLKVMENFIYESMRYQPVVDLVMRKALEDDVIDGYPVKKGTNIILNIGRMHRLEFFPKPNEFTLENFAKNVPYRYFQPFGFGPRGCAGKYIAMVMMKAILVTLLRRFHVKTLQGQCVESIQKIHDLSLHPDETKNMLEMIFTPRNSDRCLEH
Experimental: as §2
For aromatase inhibition assay, JEG-3 cells were seeded into 96-well plates at 35,000 cells/well and maintained in MEM containing supplements. When reaching 80% confluent, the cells were washed once with serum-free MEM, incubated with [1β-^3H] androstenedione (A4, 0.2 μCi/ml) for 1.25 hour in the presence of the test substances added in a concentration series. The product, tritiated water (^3H2O), was separated using 2.5% (w/v) dextran-coated charcoal at 4-8° C. for 2 hours. The supernatant radioactivity was measured by a MicroBeta scintillation counter.
as §3

CYP2D6 = CYP2D6 (Homo sapiens, UniProt P10635); experiment: Cytochrome P450 inhibition, human recombinant CYP2D6; format: in vitro ADME; conditions: recombinant human CYP, 10 minutes, 37° C.
Experimental: as §1

CYP3A4 = CYP3A4 (Homo sapiens, UniProt P08684); experiment: Cytochrome P450 inhibition, human recombinant CYP3A4; format: in vitro ADME; conditions: recombinant human CYP, 5 minutes, 37° C.
Experimental: as §1

CYP2C19, sequence (P33261 whole entry): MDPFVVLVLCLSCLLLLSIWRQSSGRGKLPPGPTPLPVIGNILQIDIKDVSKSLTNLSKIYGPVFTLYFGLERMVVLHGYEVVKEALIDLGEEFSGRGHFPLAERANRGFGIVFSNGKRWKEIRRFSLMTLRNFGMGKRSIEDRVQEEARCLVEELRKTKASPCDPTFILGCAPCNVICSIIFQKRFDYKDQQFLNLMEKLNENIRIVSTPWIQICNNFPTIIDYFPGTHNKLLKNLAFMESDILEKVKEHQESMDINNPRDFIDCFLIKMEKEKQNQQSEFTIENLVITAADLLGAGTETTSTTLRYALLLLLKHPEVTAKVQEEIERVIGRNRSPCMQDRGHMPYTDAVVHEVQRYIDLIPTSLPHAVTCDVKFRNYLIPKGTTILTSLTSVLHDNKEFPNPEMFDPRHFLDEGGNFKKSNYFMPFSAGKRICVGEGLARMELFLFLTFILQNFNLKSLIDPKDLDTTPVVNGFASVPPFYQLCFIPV
CYP2D6, sequence (P10635 whole entry): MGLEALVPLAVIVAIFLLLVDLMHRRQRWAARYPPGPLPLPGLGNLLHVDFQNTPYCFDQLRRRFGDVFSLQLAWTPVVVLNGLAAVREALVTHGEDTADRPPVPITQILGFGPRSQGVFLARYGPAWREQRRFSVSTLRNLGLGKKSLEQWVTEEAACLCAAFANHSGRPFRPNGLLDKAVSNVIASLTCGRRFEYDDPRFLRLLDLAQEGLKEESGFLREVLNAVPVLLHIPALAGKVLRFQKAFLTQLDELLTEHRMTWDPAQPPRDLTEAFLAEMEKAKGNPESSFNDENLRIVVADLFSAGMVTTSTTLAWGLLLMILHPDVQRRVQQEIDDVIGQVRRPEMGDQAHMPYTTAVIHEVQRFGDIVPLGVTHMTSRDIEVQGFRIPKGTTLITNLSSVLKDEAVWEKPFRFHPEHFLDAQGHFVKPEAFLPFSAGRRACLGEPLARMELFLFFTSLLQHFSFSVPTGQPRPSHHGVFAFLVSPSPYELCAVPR
CYP2C9, sequence (P11712 whole entry): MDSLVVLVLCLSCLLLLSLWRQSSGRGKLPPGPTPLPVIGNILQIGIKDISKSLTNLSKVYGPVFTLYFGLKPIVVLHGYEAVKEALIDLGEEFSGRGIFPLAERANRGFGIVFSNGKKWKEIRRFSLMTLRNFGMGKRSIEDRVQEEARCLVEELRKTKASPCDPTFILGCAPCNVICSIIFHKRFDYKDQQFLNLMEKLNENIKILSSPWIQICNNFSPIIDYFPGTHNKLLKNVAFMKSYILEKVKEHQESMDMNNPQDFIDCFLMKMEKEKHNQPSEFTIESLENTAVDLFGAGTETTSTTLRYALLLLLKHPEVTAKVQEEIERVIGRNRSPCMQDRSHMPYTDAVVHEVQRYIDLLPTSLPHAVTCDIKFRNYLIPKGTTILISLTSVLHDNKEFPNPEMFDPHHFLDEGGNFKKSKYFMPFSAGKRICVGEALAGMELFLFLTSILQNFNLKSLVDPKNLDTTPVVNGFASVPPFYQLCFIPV
CYP3A4, sequence (P08684 whole entry): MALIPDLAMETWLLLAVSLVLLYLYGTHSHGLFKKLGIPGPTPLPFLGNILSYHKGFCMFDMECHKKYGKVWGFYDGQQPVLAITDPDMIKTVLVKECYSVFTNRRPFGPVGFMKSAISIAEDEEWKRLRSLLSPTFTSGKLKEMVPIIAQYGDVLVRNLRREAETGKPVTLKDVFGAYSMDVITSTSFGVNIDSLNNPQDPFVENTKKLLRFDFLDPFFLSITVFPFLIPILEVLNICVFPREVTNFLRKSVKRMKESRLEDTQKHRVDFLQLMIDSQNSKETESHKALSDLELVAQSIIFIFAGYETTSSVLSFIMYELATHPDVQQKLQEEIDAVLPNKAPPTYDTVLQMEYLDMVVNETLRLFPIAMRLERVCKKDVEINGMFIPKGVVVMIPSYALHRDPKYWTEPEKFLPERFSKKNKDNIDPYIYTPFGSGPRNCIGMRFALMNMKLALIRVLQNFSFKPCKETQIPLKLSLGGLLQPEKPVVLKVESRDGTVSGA

SMILES | IC50 (CYP1A2) [nM] | IC50 (CYP2C9) [nM] | IC50 (CYP2C19) [nM] | IC50 (steroid sulfatase) [nM] | IC50 (aromatase) [nM] | IC50 (CYP2D6) [nM] | IC50 (CYP3A4) [nM]
N#Cc1cnc(Nn2cnc3ccccc32)cc1-c1ccc(OS(N)(=O)=O)cc1 [Example 26, 4-(2-(1H-Benzo[d]imidazol-1-ylamino)-5-cyanopyridin-4-yl)phenyl sulfamate] | > 5000 | > 5000 | > 5000 | 11.8 | 2.7 | > 5000 | 2540
N#Cc1cnc(Cn2cnc3cccnc32)cc1-c1ccc(OS(N)(=O)=O)cc1 [Example 36, 4-(2-((3H-Imidazo[4,5-b]pyridin-3-yl)methyl)-5-cyanopyridin-4-yl)phenyl sulfamate] | > 5000 | > 5000 | > 5000 | 10.5 | 2 | > 5000 | > 5000
N#Cc1ncc(Cn2cnc3ccccc32)cc1-c1ccc(OS(N)(=O)=O)cc1 [Example 31, 4-(5-((1H-Benzo[d]imidazol-1-yl)methyl)-2-cyanopyridin-3-yl)phenyl sulfamate] | > 5000 | > 5000 | > 5000 | 10.5 | 4.6 | > 5000 | > 5000
N#Cc1ccc(Nn2cnc3ccccc32)nc1-c1ccc(OS(N)(=O)=O)cc1 [Example 22, 4-(6-(1H-Benzo[d]imidazol-1-ylamino)-3-cyanopyridin-2-yl)phenyl sulfamate] | > 5000 | > 5000 | > 5000 | 6 | 3.7 | > 5000 | > 5000
N#Cc1ccc(N(CC2CC2)n2cnc3ccccc32)cc1-c1ccc(OS(N)(=O)=O)cc1 [Example 6, 5′-((1H-Benzo[d]imidazol-1-yl)(cyclopropylmethyl)amino)-2′-cyano-[1,1′-biphenyl]-4-yl sulfamate] |  |  |  | > 60 | 53.2 |  | 

The next lines start with the values.

IC50 (CYP1A2) [nM] | IC50 (CYP2C9) [nM] | IC50 (CYP2C19) [nM] | IC50 (steroid sulfatase) [nM] | IC50 (aromatase) [nM] | IC50 (CYP2D6) [nM] | IC50 (CYP3A4) [nM] | SMILES
> 5000 | > 5000 | > 5000 | 1.8 | 3.5 | > 5000 | 3680 | N#Cc1cnc(Cn2cnc3ccccc32)nc1-c1ccc(OS(N)(=O)=O)cc1 [Example 9, 4-(2-((1H-Benzo[d]imidazol-1-yl)methyl)-5-cyanopyrimidin-4-yl)phenyl sulfamate]
> 5000 | > 5000 | > 5000 | 3.9 | 2.2 | > 5000 | > 5000 | N#Cc1cnc(Cn2cnc3ccccc32)cc1-c1ccc(OS(N)(=O)=O)cc1 [Example 17, 4-(2-((1H-Benzo[d]imidazol-1-yl)methyl)-5-cyanopyridin-4-yl)phenyl sulfamate]
 |  |  | 41.8 | 2.4 |  |  | CN(c1ccc(C#N)c(-c2ccc(OS(N)(=O)=O)cn2)c1)n1cnc2ccccc21 [Example 37, 6-(5-((1H-Benzo[d]imidazol-1-yl)(methyl)amino)-2-cyanophenyl)pyridin-3-yl sulfamate]
 |  |  | 16.4 | > 60 |  |  | N#Cc1ccc(Cn2c(C(F)(F)F)nc3ccccc32)cc1-c1ccc(OS(N)(=O)=O)cc1 [Example 7, 2′-Cyano-5′-((2-(trifluoromethyl)-1H-benzo[d]imidazol-1-yl)methyl)biphenyl-4-yl sulfamate]
 |  |  | 18.4 | 1.2 |  |  | N#Cc1ccc(Nn2nnc3ccccc32)cc1-c1ccc(OS(N)(=O)=O)cc1 [Example 11, 5′-(1H-Benzo[d][1,2,3]triazol-1-ylamino)-2′-cyanobiphenyl-4-yl sulfamate]
> 5000 | > 5000 | > 5000 | 2 | 0.9 | > 5000 | 3260 | N#Cc1ccc(Cn2cnc3cc(F)c(F)cc32)cc1-c1ccc(OS(N)(=O)=O)cc1 [Example 24, 2′-Cyano-5′-((5,6-difluoro-1H-benzo[d]imidazol-1-yl)methyl)biphenyl-4-yl sulfamate]
